Measurements from EPA's ToxValDB 9.5 (doi:10.2903/j.efsa.2009.339r).

Key:
[1] = system: Rattus norvegicus; details: acute; oral; mortality
[2] = system: Anas platyrhynchos
[3] = system: Daphnia magna; details: chronic/long-term; duration: 21 days; reproduction
[4] = system: Bibionidae; details: chronic/long-term; duration: 28 days
[5] = system: Oncorhynchus mykiss
[6] = reproductive; oral; feed
[7] = system: Canidae; details: chronic; duration: 1 years; oral; Dog Other; clinical chemistry
[8] = system: Apis mellifera; details: acute; duration: 48 hours; oral; unspecified; mortality
[9] = system: Colinus virginianus
[10] = system: Tagia sp.; details: acute; mortality
[11] = system: Typhlodromus pyri; test: LR50; higher = less toxic; details: acute; duration: 14 days; mortality

CCC(C)(C)C(=O)OC1=C(c2ccc(Cl)cc2Cl)C(=O)OC12CCCCC2 [Spirodiclofen]
LD50 [1]: > 2500 mg/kg
NOEC ([2]; reproductive): 111 mg/kg-day
LC50 ([2]; short-term, oral, feed, mortality): > 2270 mg/kg-day
NOEC [3]: 0.0111 mg/L
NOEC [4]: 0.032 mg/L
LC50 ([5]; acute, duration: 96 hours, mortality): > 0.0351 mg/L
NOEC ([5]; chronic/long-term, duration: 97 days, time to hatch): 0.00195 mg/L
NOEC [6]: 6 mg/kg-day
NOAEL [7]: 1.45 mg/kg-day
LD50 [8]: > 196 µg/piece
LC50 ([9]; acute, oral, diet, mortality): > 1060 mg/kg-day
LD50 ([9]; acute, oral, mortality): > 2000 mg/kg
NOEC ([9]; reproduction developmental): 51 mg/kg-day
LC50 [10]: > 1000 mg/kg
LR50 [11]: 2.4 g/ha
